Data on 26 molecules can be found in patent US10689354B2, “Aminoazole derivative” (Teijin Pharma Limited, priority 2015, dated 2020).

This experiment concerns the target T1, androgen receptor (AR-LBD) (Rattus norvegicus, UniProt P15207).
T1 construct: 5 μL of 2×AR-LBD/Fluoromone AL Red Complex contained in the kit; purchased Invitrogen
T1 sequence (P15207 651-882 limits assumed): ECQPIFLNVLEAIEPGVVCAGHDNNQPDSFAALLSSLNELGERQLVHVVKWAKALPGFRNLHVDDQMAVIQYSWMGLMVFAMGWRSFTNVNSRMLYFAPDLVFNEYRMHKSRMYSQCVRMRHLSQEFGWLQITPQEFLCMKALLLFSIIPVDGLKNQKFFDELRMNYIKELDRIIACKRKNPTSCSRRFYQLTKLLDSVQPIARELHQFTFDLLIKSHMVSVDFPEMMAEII
The experiment is described as follows: Evaluation of androgen receptor affinity (PolarScreen Androgen Receptor Competitor Assay Kit, Red; fluorescence polarization). The note with it: 22° C. for 5 hours, relative to binding rate of 1 μM DHT, read-out: AR affinity (pEC50) (converted). Summed up:
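Duplicate wells of test compound were mixed with the kit's rat AR-LBD–Fluoromone AL Red tracer complex and left 5 hours at 22 °C before polarization was read. A 4-parameter fit gave pEC50, with binding rate referenced to 1 μM dihydrotestosterone.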

Consider `Cc1sc(N(Cc2ccccc2)CC2CCCCC2)nc1C(=O)NS(C)(=O)=O` [Compound 668, 2-[benzyl(cyclohexylmethyl)amino]-5-methyl-N-methylsulfonyl-thiazole-4-carboxamide], for which the EC50 was above 2000 nM.

Turning to `Cc1sc(N(Cc2ccccc2)C2CCCC2)nc1C(=O)NS(C)(=O)=O` [Compound 669, 2-[benzyl(cyclopentyl)amino]-5-methyl-N-methylsulfonyl-thiazole-4-carboxamide], the EC50 is 631 nM.

Regarding `Cc1sc(N(Cc2ccccc2)C2CCCCC2)nc1C(=O)NS(C)(=O)=O` [Compound 670, 2-[benzyl(cyclohexyl)amino]-5-methyl-N-methylsulfonyl-thiazole-4-carboxamide], the EC50 is above 2000 nM.

Consider `Cc1sc(N(Cc2ccccc2)C(C)Cc2ccccc2)nc1C(=O)NS(C)(=O)=O` (centres unmarked) [Compound 674, 2-[benzyl-(1-methyl-2-phenyl-ethyl)amino]-5-methyl-N-methylsulfonyl-thiazole-4-carboxamide], for which the EC50 was above 2000 nM.

On to `Cc1sc(N(Cc2ccccc2)Cc2csc3cc(C#N)ccc23)nc1C(=O)NS(C)(=O)=O` [Compound 675, 2-[benzyl-[(6-cyanobenzothiophen-3-yl)methyl]amino]-5-methyl-N-methylsulfonyl-thiazole-4-carboxamide], for which the EC50 was above 2000 nM.

Regarding `Cc1sc(N(Cc2ccccc2)Cc2csc3cc(C(F)(F)F)ccc23)nc1C(=O)NS(C)(=O)=O` [Compound 676, 2-[benzyl-[[6-(trifluoromethyl)benzothiophen-3-yl]methyl]amino]-5-methyl-N-methylsulfonyl-thiazole-4-carboxamide], the EC50 was above 2000 nM.

Turning to `Cc1sc(N(CCn2nccn2)Cc2ccccc2)nc1C(=O)NS(C)(=O)=O` [Compound 679, 2-[benzyl-[2-(triazol-2-yl)ethyl]amino]-5-methyl-N-methylsulfonyl-thiazole-4-carboxamide], the EC50 was above 2000 nM.

Take `Cc1sc(N(CCn2cncn2)Cc2ccccc2)nc1C(=O)NS(C)(=O)=O` [Compound 680, 2-[benzyl-[2-(1,2,4-triazol-1-yl)ethyl]amino]-5-methyl-N-methylsulfonyl-thiazole-4-carboxamide]: the EC50 is above 2000 nM.

On to `Cc1ccn(CCN(Cc2ccccc2)c2nc(C(=O)NS(C)(=O)=O)c(C)s2)n1` [Compound 681, 2-[benzyl-[2-(3-methylpyrazol-1-yl)ethyl]amino]-5-methyl-N-methylsulfonyl-thiazole-4-carboxamide], for which the EC50 was above 2000 nM.

As to `Cc1sc(N(CCn2nccc2C)Cc2ccccc2)nc1C(=O)NS(C)(=O)=O` [Compound 682, 2-[benzyl-[2-(5-methylpyrazol-1-yl)ethyl]amino]-5-methyl-N-methylsulfonyl-thiazole-4-carboxamide], the EC50 is above 2000 nM.

Take `Cc1sc(N(CCC(C)(C)C)Cc2ccccc2)nc1C(=O)NS(C)(=O)=O` [Compound 686, 2-[benzyl(3,3-dimethylbutyl)amino]-5-methyl-N-methylsulfonyl-thiazole-4-carboxamide]: the EC50 was above 2000 nM.

For `Cc1sc(N(CCC2CC2)Cc2ccccc2)nc1C(=O)NS(C)(=O)=O` [Compound 687, 2-[benzyl(2-cyclopropylethyl)amino]-5-methyl-N-methylsulfonyl-thiazole-4-carboxamide], the EC50 is above 2000 nM.

Regarding `Cc1sc(N(CCn2cccn2)Cc2ccccc2)nc1C(=O)NS(C)(=O)=O` [Compound 688, 2-[benzyl(2-pyrazol-1-ylethyl)amino]-5-methyl-N-methylsulfonyl-thiazole-4-carboxamide], the EC50 is above 2000 nM.

For the molecule `Cc1cc(C)n(CCN(Cc2ccccc2)c2nc(C(=O)NS(C)(=O)=O)c(C)s2)n1` [Compound 689, 2-[benzyl-[2-(3,5-dimethylpyrazol-1-yl)ethyl]amino]-5-methyl-N-methylsulfonyl-thiazole-4-carboxamide], the EC50 is above 2000 nM.

Regarding `Cc1sc(N(CCc2ccc3nccnc3c2)Cc2ccccc2)nc1C(=O)NS(C)(=O)=O` [Compound 690, 2-[benzyl(2-quinoxalin-6-ylethyl)amino]-5-methyl-N-methylsulfonyl-thiazole-4-carboxamide], the EC50 is 1000 nM.

For `Cc1noc(C)c1CCN(Cc1ccccc1)c1nc(C(=O)NS(C)(=O)=O)c(C)s1` [Compound 691, 2-[benzyl-[2-(3,5-dimethylisoxazol-4-yl)ethyl]amino]-5-methyl-N-methylsulfonyl-thiazole-4-carboxamide], the EC50 is above 2000 nM.

On to `CCS(=O)(=O)NC(=O)c1nc(N(CCc2ccc(Cl)cc2)CC2CCCCC2)sc1C` [Compound 698, 2-[2-(4-chlorophenyl)ethyl-(cyclohexylmethyl)amino]-N-ethylsulfonyl-5-methyl-thiazole-4-carboxamide], for which the EC50 was 794 nM.

Consider `Cc1sc(N(CCc2ccc(Cl)cc2)CC2CCCCC2)nc1C(=O)NS(=O)(=O)C(F)(F)F` [Compound 700, 2-[2-(4-chlorophenyl)ethyl-(cyclohexylmethyl)amino]-5-methyl-N-(trifluoromethylsulfonyl)thiazole-4-carboxamide], for which the EC50 was above 2000 nM.

For the molecule `Cc1sc(N(CCC2CCNCC2)Cc2ccccc2)nc1C(=O)NS(C)(=O)=O` [Compound 705, 2-[benzyl-[2-(4-piperidyl)ethyl]amino]-5-methyl-N-methylsulfonyl-thiazole-4-carboxamide], the EC50 is above 2000 nM.

With `Cc1nc(CCN(Cc2ccccc2)c2nc(C(=O)NS(C)(=O)=O)c(C)s2)cs1` [Compound 706, 2-[benzyl-[2-(2-methylthiazol-4-yl)ethyl]amino]-5-methyl-N-methylsulfonyl-thiazole-4-carboxamide], the EC50 is above 2000 nM.

As to `Cc1sc(N(CCc2coc3ccccc23)Cc2ccccc2)nc1C(=O)NS(C)(=O)=O` [Compound 707, 2-[2-(benzofuran-3-yl)ethyl-benzyl-amino]-5-methyl-N-methylsulfonyl-thiazole-4-carboxamide], the EC50 was above 2000 nM.

For `Cc1sc(N(CCC(F)(F)F)Cc2ccccc2)nc1C(=O)NS(C)(=O)=O` [Compound 711, 2-[benzyl(3,3,3-trifluoropropyl)amino]-5-methyl-N-methylsulfonyl-thiazole-4-carboxamide], the EC50 was above 2000 nM.

As for `Cc1sc(N(CCC(O)CO)Cc2ccccc2)nc1C(=O)NS(C)(=O)=O` (centres unmarked) [Compound 712, 2-[benzyl(3,4-dihydroxybutyl)amino]-5-methyl-N-methylsulfonyl-thiazole-4-carboxamide], the EC50 was above 2000 nM.

Regarding `Cc1sc(N(CCc2ccc(C#N)cc2)CC2CCCCC2)nc1C(=O)NS(=O)(=O)C1CC1` [Compound 718, 2-[2-(4-cyanophenyl)ethyl-(cyclohexylmethyl)amino]-N-cyclopropylsulfonyl-5-methyl-thiazole-4-carboxamide], the EC50 is above 2000 nM.

Take `Cc1sc(N(CCc2ccc(C#N)cc2)CC2CCCCC2)nc1C(=O)NS(=O)(=O)C(F)(F)F` [Compound 719, 2-[2-(4-cyanophenyl)ethyl-(cyclohexylmethyl)amino]-5-methyl-N-(trifluoromethylsulfonyl)thiazole-4-carboxamide]: the EC50 is above 2000 nM.

Turning to `Cc1sc(N(CCc2ccc(C#N)cc2)CC2CCCCC2)nc1C(=O)NS(=O)(=O)Cc1cccc(F)c1` [Compound 720, 2-[2-(4-cyanophenyl)ethyl-(cyclohexylmethyl)amino]-N-[(3-fluorophenyl)methylsulfonyl]-5-methyl-thiazole-4-carboxamide], the EC50 is above 2000 nM.
